Values joined by “and” are separate entries in the source; they are usually repeats but may differ in a detail not shown here. Identical values can stand only once.
What was measured:
Caenorhabditis elegans = experiment: Nematicidal activity against C. elegans (motility rating); assay type: in vivo, C. elegans (Bristol strain); design: key: 9: complete kill; 8: no motility; 7: markedly reduced motility in approximately 95% of worms; 6: reduced motility; 5: slightly reduced motility; 0: normal motility, same as controls; details: read at 4 and 24 hours post-immersion
Experimental: Cultures of C. elegans (Bristol strain from J. Lewis) are maintained on E. coli lawns on NG Agar Plates at 20° C. New cultures are established weekly.
Nematodes for testing are washed from 4-5 day old cultures using Fresh Ascaris Ringers Solution (FARS). The worms are further washed with FARS,-containing gentamycin, to reduce bacterial contamination and centrifuged to separate worms from wash solution. This procedure is repeated three times. The washed worms are then added to C. brigassae Maintenance Medium (CbMM), from GIBCOa to which is added gentamycin (600 units/ml) and mycostatin (0.5 mg/ml).
Compounds are dissolved in acetone and made up to volume with equal parts of water. The final test concentration of each compound in the mixture is 150 ppm. The test material is micropipetted (25 ul) into a single well of a 96-well sterile tissue culture plate (COSTAR)^b and the solvent allowed to evaporate. These "treated" plates are used immediately or stored in a refrigerator without apparent adverse effects on the compounds.
A freshly prepared volume ([…]) of C. elegans in CbMM is micropipetted into each treated well and several control wells per plate. Culture plates are incubated at 20° C.
Observations for efficacy are made under a dissecting microscope at 4 and 24 hours post-immersion. Immediately prior to reading the plate, it is gently tapped to stimulate the movement of the worms. Activity is judged based on the drug effects on motility of the adults and larvae. […] Other factors indicating activity are easily noted such as death, rigor mortis, contraction, coiling, paralysis, abnormal twitching, reduced worm population in 48 hours and other deviation from normal behavior.
Day 0 Inoculate E. Coli-NG Agar Dish With 30-40
Day 4 Harvest New C. Elegans Population
Add C. Elegans (25-100 µL) To "Medicated"
Observe for Activity at 4 hours Post-
Day 5 Observe For Activity

[1] = tested on: Trichostrongylus colubriformis; experiment: Control of helminths (T. colubriformis) in infected gerbils; assay type: in vivo, Trichostrongylus colubriformis (sheep origin) in gerbils; details: 500 PPM in diet, 4 days
From the text: Each test generally consists of 75 infected gerbils, randomly distributed 2 or 3 per cage (the number of animals per cage is consistent within a specific experiment). Generally, there are 8-9 untreated control gerbils (3-4 cages) per test. The remaining cages are assigned a treatment, usually 1 cage per compound or dose.
Compounds administered in diet are fed for 4 days. Animals treated by gavage or injection are generally treated on only 1 day (usually day 7).
In accordance with this test, gerbils are each orally infected by gavage, with about 400 Trichostrongylus colubriformis infective larvae of sheep origin. The infected animals are then permitted to feed and drink ad libitum for six days. On day 7 the infected gerbils are randomly placed in rodent cages 2 or 3 animals per cage. The animals in each cage are weighed and the feed for each cage weighed. If the treatment to be evaluated is medicated feed, said medicated feed is offered on day 7 and continued through day 11 of the trial. If the treatment to be evaluated is a single oral dose or a parenteral treatment, the animals are given the medication by gavage or injection on day 7 and receive unmedicated feed and water through day 11 of the trial. On day 11 the animals and their feed are weighed. Thereafter the animals are euthanized by CO2 inhalation and their small intestines removed, inverted on application sticks and incubated in tap water at 39° C. for 1-5 hours. The sticks and intestines are then discarded and the worms from each treatment counted to determine the % mortality of the worms as compared to untreated controls.

Psoroptes cuniculi = experiment: Filter paper contact test against Psoroptes cuniculi (Rabbit Ear Mite); assay type: in vivo; details: Psoroptes ovis, 24 hour; for mortality at 4 µg/cm2, 4 µg/cm2: 4.0 μg/cm^2, read-out: 24 hour % Mortality; for mortality at 10 µg/cm2, 10 µg/cm2: 10.0 μg/cm^2
Experimental: On the day prior to the test initiation the drugs to be evaluated are dissolved in acetone and diluted to the desired concentrations. The concentration is calculated so that 400 μl contains the amount of test compound to be placed on each filter paper. 400 μl of this solution is pipetted onto a top (3.7 cm dia.) and bottom (3.5 cm dia.) filter paper disks which are then placed on a ceramic plate to dry. There is a rough and smooth side to the filter paper. Drug should be applied to the rough side which is placed up while drying. When dry the two disks are placed in a Petri dish with the rough sides facing in, separated by one 3 mm glass bead. Dishes are held at room temperature overnight if done the day before the test.
Scab (containing mites) is collected from the ears of infested rabbits the morning of the test. This material is placed in a large Petri dish under an illuminated magnifier. Mites crawl out of the scab and are easily collected on the point of a dissecting needle or one prong of a pair of fine forceps. The top filter paper in each dish is removed and 12 mites are placed on the bottom disk and the top paper replaced. Before replacing the top of the Petri dish the rim of the dish is smeared with Vaseline to trap any escaping mites.
For evaluation tests there are generally 4 replicates of each dose which are counted at 24 hours. After mites are added to the dishes, the dishes in each replicate are placed in a tray which is then placed in a plastic bag with several wet towels and held at room temperature.
After 24 hours dishes are examined under a dissecting scope. Each dish is opened carefully and the top filter paper removed and saved. A 1/2 cm circle is drawn on the bottom filter paper and the paper gently wet in the area of the circle. All mites from the dish are transferred into the wet circle area and counted. The top cover is replaced on each dish and the dishes set aside for at least 15 minutes. After standing the dishes are examined and the mites remaining on the circle counted. These mites are dead. Percent mortality of the mites is then calculated for each treatment.

Dermacentor variabilis = experiment: Filter paper contact test against larval stages of the Dogtick; assay type: in vivo; details: for mortality at 10 µg/cm2, 10 µg/cm2: 10.0 μg/cm^2, 48 hour
Experimental: The test procedure used herein is the same procedure described in Example 2, for evaluating the arylpyrroles for control of Psoroptes cuniculi the Rabbit Ear Mite, with the following exceptions:
(1) Unfed larval ticks are obtained from egg masses laid by gravid female ticks removed from dogs and each replicate receives ticks from the same egg mass;
(2) Ticks survive longer than mites in the Petri dishes, thus readings are made 48 hours or longer after the test is initiated; and
(3) When reading the test it may be necessary to blow on the ticks to stimulate their movement.

Housefly Larvae = experiment: Inhibition of pupation of newly emerged housefly larvae; assay type: in vivo; details: Musca domestica, 168 h, one week, 27° C., corrected by Abbott's formula
Experimental: In this test system newly emerged housefly larvae are grown on an undefined medium of fermented whole milk and dried beef blood. Compounds are added to the milk and activity is determined by the failure of larvae to pupate.
The test is run in 1 oz. plastic medicine cups. Paper toweling is cut in pieces approximately 3.5×10 cm. Three of these pieces are folded accordion style and placed in each paper cup. A piece of masking tape is placed on the outside of the cup to facilitate numbering. Cups should be prepared prior to the day the test is to begin.
Newly hatched housefly larvae are obtained on the morning the test is to begin. The eggs are laid the night before and larvae usually begin to hatch by 9-10 AM the following morning.
Twenty-four hours before the initiation of the test, one half gallon of whole milk is divided into 5 1-liter beakers and placed in an incubator at 39° C.
The morning of the test, one 250 ml beaker is labeled for each treatment. The fermented milk is removed from the incubator, stirred and poured into each of the small beakers. The beakers are then returned to the incubator and 1-2 g of dried beef blood added to each beaker to distribute blood which will not dissolve. The beakers are again returned to the incubator.
Doses of compounds are calculated so that 0.1 ml contains the amount of compound to be added to 100 ml of milk. Compounds should be dissolved in acetone. 100 μl of acetone is added to each control beaker.
Each beaker is removed from incubator and placed on a magnetic stirrer. The compound is added and thoroughly mixed. Then 20 ml portions are removed and added to labelled test cups (4 reps/treatment). Cups are placed in stainless steel tray until all are prepared. […] The tray containing the cups are then placed in a plastic bag and maintained at room temperature.
The media that the fly eggs are laid in is spread out in a green or black pan so that larvae can be observed. Working under an illuminated magnifier 20 larvae are transferred into each cup using a fine paint brush. Each cup is then sealed in a Zip-Loc sandwich bag with a few pinholes in it.
Bags containing cups are placed on a flat tray and placed in a 27° C. incubator for one week. The majority of the larvae will have pupated at this point.
Trays are then removed from the incubator and the number of pupae in each bag recorded. The paper toweling is removed and examined closely for any pupae that have remained in the cups. Most of the pupae will be loose in the bag. A note is also made of any dead or live developed larvae. If there are larvae that appear capable of pupating, the bag may be returned to the incubator for a day to see if they will pupate.
The percent development of pupae is then calculated. The final results are expressed as a percent inhibition of pupation and are corrected for control mortality by using Abbott's formula.

CCOCn1c(-c2ccc(Cl)c(Cl)c2)c(C#N)c(Br)c1C(F)(F)F [4-bromo-2-(3,4-dichlorophenyl)-1-(ethoxymethyl)-5-(trifluoromethyl)-pyrrole-3-carbonitrile]
Rating Against C. Elegans 150 ppm (Caenorhabditis elegans): 9
% Helminth removal [1]: 15% and 28%

N#Cc1c(Br)[nH]c(-c2ccc(Cl)cc2)c1Br [2,4-dibromo-5-(p-chlorophenyl)pyrrole-3-carbonitrile]
mortality at 4 µg/cm2, 4 µg/cm2 (Psoroptes cuniculi): 11%

4-Bromo-1-(ethoxymethyl)-5-(trifluoromethyl)pyrrole-3-carbonitrile
% Helminth removal [1]: 13%

CCOCn1c(-c2ccc(Cl)cc2)c(C#N)c(Br)c1C(F)(F)F [4-Bromo-2-(P-chlorophenyl)-1-(ethoxymethyl)-5-(trifluoromethyl)-2-(α,α,α-trifluoro-P-tolyl)pyrrole-3-carbonitrile]
% Helminth removal [1]: 29%

CCOCn1c(C(F)(F)F)cc([N+](=O)[O-])c1-c1ccc(Cl)c(Cl)c1 [2-(3,4-Dichlorophenyl)-1-(ethoxymethyl)-3-nitro-5-(trifluoromethyl)pyrrole]
mortality at 4 µg/cm2, 4 µg/cm2 (Psoroptes cuniculi): 92%

N#Cc1c(-c2ccc(Cl)c(Cl)c2)[nH]c(Cl)c1Cl [4,5-dichloro-2-(3,4-dichlorophenyl)pyrrole-3-carbonitrile]
mortality at 10 µg/cm2, 10 µg/cm2 (Psoroptes cuniculi): 33%
mortality at 10 µg/cm2, 10 µg/cm2 (Dermacentor variabilis): 40%

CCOCn1c(Cl)c(Cl)c(C#N)c1-c1ccc(OC(F)(F)F)cc1 [4,5-Dichloro-1-(ethoxymethyl)-2-[P-(trifluoromethoxy)phenyl]pyrrole-3-carbonitrile]
mortality at 4 µg/cm2, 4 µg/cm2 (Psoroptes cuniculi): 100%

CCOCn1c(-c2ccc(Br)cc2)c(C#N)c(Br)c1C(F)(F)F [4-Bromo-2-(P-bromophenyl)-1-(ethoxymethyl)-5-(trifluoromethyl)pyrrole-3-carbonitrile]
mortality at 4 µg/cm2, 4 µg/cm2 (Psoroptes cuniculi): 31%

CCOCn1c(-c2ccc(Cl)cc2)c(C#N)c(Br)c1C(F)(F)F [4-bromo-2-(P-chlorophenyl)-1-(ethoxymethyl)-5-(trifluoromethyl)pyrrole-3-carbonitrile]
mortality at 4 µg/cm2, 4 µg/cm2 (Psoroptes cuniculi): 76%
mortality at 1 µg/cm2, 1 µg/cm2 (Dermacentor variabilis; 1.0 μg/cm^2, 48 hour): 77%
mortality at 4 µg/cm2, 4 µg/cm2 (Dermacentor variabilis; 4.0 μg/cm^2, 48 hour): 83%
mortality at 5 µg/cm2, 5 µg/cm2 (Dermacentor variabilis; 5.0 μg/cm^2, 48 hour): 100%
mortality at 10 µg/cm2, 10 µg/cm2 (Dermacentor variabilis): 100%
inhibition at 1 ppm (Housefly Larvae; 1.0 ppm): 15%
inhibition at 2.5 ppm (Housefly Larvae; 2.5 ppm): 0%
inhibition at 5 ppm (Housefly Larvae; 5.0 ppm): 38%
inhibition at 10 ppm (Housefly Larvae): 99%
Rating Against C. Elegans 150 ppm (Caenorhabditis elegans): 9

N#CCn1c(Cl)c(Cl)c(C#N)c1-c1ccc(C(F)(F)F)cc1 [2,3-Dichloro-4-cyano-5-(α,α,α-trifluoro-P-tolyl)-pyrrole-1-acetonitrile]
mortality at 4 µg/cm2, 4 µg/cm2 (Psoroptes cuniculi): 77%
inhibition at 10 ppm (Housefly Larvae): 100%
Rating Against C. Elegans 150 ppm (Caenorhabditis elegans): 9

Cn1c(Cl)c(Cl)c(C#N)c1-c1ccc(OC(F)(F)F)cc1 [4,5-Dichloro-1-methyl-2-[P-(trifluoromethoxy)phenyl]-pyrrole-3-carbonitrile]
mortality at 10 µg/cm2, 10 µg/cm2 (Dermacentor variabilis): 55%

N#Cc1cc[nH]c1-c1cc(F)c(Cl)cc1Cl [2-(2,4-Dichloro-5-fluorophenyl)pyrrole-3-carbonitrile]
mortality at 4 µg/cm2, 4 µg/cm2 (Psoroptes cuniculi): 73%

O=[N+]([O-])c1c(-c2ccc(Cl)cc2)[nH]c(Cl)c1Cl [2,3-Dichloro-5-(P-chlorophenyl)-4-nitropyrrole]
mortality at 4 µg/cm2, 4 µg/cm2 (Psoroptes cuniculi): 52%
mortality at 10 µg/cm2, 10 µg/cm2 (Psoroptes cuniculi): 91%
mortality at 10 µg/cm2, 10 µg/cm2 (Dermacentor variabilis): 58%
Rating Against C. Elegans 150 ppm (Caenorhabditis elegans): 9

O=[N+]([O-])c1c(-c2ccccc2)[nH]c(C(F)(F)F)c1C(F)(F)F [3-nitro-2-phenyl-4,5-bis(trifluoromethyl)pyrrole]
Rating Against C. Elegans 150 ppm (Caenorhabditis elegans): 9
% Helminth removal [1]: 42%

CS(=O)(=O)c1ccc(-c2[nH]c(Br)c(Br)c2C#N)cc1 [4,5-Dibromo-2-[P-(methylsulfonyl)phenyl]-pyrrole-3-carbonitrile]
Rating Against C. Elegans 150 ppm (Caenorhabditis elegans): 9

Reference: US5310938A, “Substituted arylpyrrole compounds” (American Cyanamid Company, priority 1993, dated 1994)
